pIC50: −log10 of the molar value.

The values that follow come from patent US10961238B2, “Modulators of hedgehog (Hh) signaling pathway” (E-THERAPEUTICS PLC, priority 2016, dated 2021).

This assay has as its system C3H10T1/2 cells. Nature of the assay: C3H assay: differentiation of C3H10T1/2 cells by mSHH, measurement of alkaline phosphatase. As to conditions: Mus musculus, C3H 10T1/2; C3H10T1/2 cells stimulated with mSHH for 72 hours; alkaline phosphatase activity; read-out: IC50 Ranges. It is filed as cell-based, mouse.
As to `C[C@H]1CC(c2c[nH]c3ncccc23)CCN1S(=O)(=O)C1CN(C(=O)OC(C)(C)C)C1` (mixture of isomers) [Compound 45, tert-butyl 3-[(2R)-2-methyl-4-(1H-pyrrolo[2,3-b]pyridin-3-yl)piperidin-1-yl]sulfonylaze-tidine-1-carboxylate], the pIC50 was 7.00 to 8.00.

Take `CC1(COC(=O)N2CC(S(=O)(=O)N3CCC(c4c[nH]c5ncccc45)CC3)C2)COC1` [Compound 199, (3-methyloxetan-3-yl)methyl 3-[4-(1H-pyrrolo[2,3-b]pyridin-3-yl)piperidin-1-yl]sulfonylaze-tidine-1-carboxylate]: the pIC50 was 7.00 to 8.00. `CC(C)C(=O)N1CC(S(=O)(=O)N2CCC(c3c[nH]c4ncccc34)CC2)C1` [Compound 194, 2-methyl-1-[3-[4-(1H-pyrrolo[2,3-b]pyridin-3-yl)piperidin-1-yl]sulfonylaze-tidin-1-yl]propan-1-one]: the pIC50 was 6.00 to 7.00.

Consider `O=S(=O)(C1CN(c2ccccn2)C1)N1CCC(c2c[nH]c3cccnc23)CC1` [Compound 356, 3-[1-(1-pyridin-2-ylazetidin-3-yl)sulfonylpiper-idin-4-yl]-1H-pyrrolo[3,2-b]pyridine], for which the pIC50 was 5.00 to 6.00. For the molecule `COC(=O)c1coc(N2CC(S(=O)(=O)N3CCC(c4c[nH]c5ncccc45)CC3)C2)n1` [Compound 246, methyl 2-[3-[4-(1H-pyrrolo[2,3-b]pyridin-3-yl)piperidin-1-yl]sulfonylaze-tidin-1-yl]-1,3-oxazole-4-carboxylate], the pIC50 is 6.00 to 7.00.

As to `O=S(=O)(C1CN(Cc2ccco2)C1)N1CCC(c2c[nH]c3ncccc23)CC1` [Compound 70, 3-[1-[1-(furan-2-ylmethyl)azetidin-3-yl]sulfonylpiper-idin-4-yl]-1H-pyrrolo[2,3-b]pyridine], the pIC50 was 6.00 to 7.00. In the case of `O=C(OC1CCOCC1)N1CC(S(=O)(=O)N2CCC(c3ccncc3)CC2)C1` [Compound 29, oxan-4-yl 3-(4-pyridin-4-ylpiperidin-1-yl)sulfonylaze-tidine-1-carboxylate], the pIC50 was 5.00 to 6.00. `O=C(Oc1ccc(F)cc1)N1CC(S(=O)(=O)N2CCC(c3c[nH]c4ncccc34)CC2)C1` [Compound 77, (4-fluorophenyl) 3-[4-(1H-pyrrolo[2,3-b]pyridin-3-yl)piperidin-1-yl]sulfonylaze-tidine-1-carboxylate]: the pIC50 is 7.00 to 8.00.

Regarding `CC(C)[C@H](CO)NC(=O)N1CC(S(=O)(=O)N2CCC(c3ccc(F)cc3)CC2)C1` (racemic) [Compound 344, 3-[4-(4-fluorophenyl)piperidin-1-yl]sulfonyl-N-[1-hydroxy-3-methylbutan-2-yl] azetidine-1-carboxamide], the pIC50 is 6.00 to 7.00. To `C[C@@H]1CN(C(=O)N2CC(S(=O)(=O)N3CCC(c4coc5cccnc45)CC3)C2)C[C@H](C)O1` [Compound 374, [(2R,6S)-2,6-dimethylmorpholin-4-yl]-[3-(4-furo[3,2-b]pyridin-3-ylpiperidin-1-yl)sulfonylazetidin-1-yl]methanone] belongs over 8.00. To `Cc1noc(C)c1CC(=O)N1CC(S(=O)(=O)N2CCC(c3ccc(C#N)cc3)CC2)C1` [Compound 349, 4-[1-[1-[2-(3,5-dimethyl-1,2-oxazol-4-yl)acetyl]azetidin-3-yl]sulfonylpiper-idin-4-yl]benzonitrile] belongs 7.00 to 8.00.

As to `CN1CCC(COC(=O)N2CC(S(=O)(=O)N3CCC(c4c[nH]c5ncccc45)CC3)C2)CC1` [Compound 51, (1-methylpiperidin-4-yl)methyl 3-[4-(1H-pyrrolo [2,3-b]pyridin-3-yl)piperidin-1-yl]sulfonylaze-tidine-1-carboxylate], the pIC50 was 6.00 to 7.00. In the case of `O=S(=O)(C1CN(Cc2cccnc2)C1)N1CCC(c2c[nH]c3ncccc23)CC1` [Compound 157, 3-[1-[1-(pyridin-3-ylmethyl)azetidin-3-yl]sulfonylpiper-idin-4-yl]-1H-pyrrolo[2,3-b]pyridine], the pIC50 is 5.00 to 6.00.

The term pIC50 denotes −log10 of the IC50, conventionally taken in molar units.
